Measured values as given in ChEMBL document CHEMBL5375967 (J Med Chem, 2023).
Values after ≈ are worked out from the molar mass of the structure shown. Active and inactive are the calls of the source. The rule behind the calls is not given here.

Key:
physchem [1] = details: octanol/water, pH 7.4
[2] = Metabolic stability in human hepatocyte assessed as intrinsic clearance; type: ADME, cell-based; details: hepatocytes
Mus musculus [3] = experiment: Antiarthritic activity in KRN passive serum-induced arthritis C57BL/6 mouse model assessed as reduction in macrophage numbers at 0.1 to 10 mg/kg, po bid measured on day 7 at 2 hrs after first dose and 14 hrs after second dose; type: functional, organism-based; details: dose 0.1-10 mg/kg, time 7.0 day
[4] = Half life in dog at 1 mg/kg, iv measured upto 24 hrs by LC-MS/MS analysis; type: ADME, organism-based, Canis lupus familiaris; details: in vivo
[5] = Inhibition of calcium ionophore A23187-stimulated LTB4 release in C57BL/6 mouse model at 10 mg/kg, po bid measured after 24 hrs; type: functional
[6] = Inhibition of calcium ionophore A23187-stimulated LTB4 release in C57BL/6 mouse model at 10 mg/kg, po bid measured after 2 hrs; type: functional
[7] = target: T1, Leukotriene A-4 hydrolase (Homo sapiens, UniProt P09960); experiment: Inhibition of LTA4H in human whole blood assessed as ionophore-stimulated LTB4 release preincubated for 15 mins by competitive immunoassay; type: tissue-based
T1 sequence (P09960 whole entry): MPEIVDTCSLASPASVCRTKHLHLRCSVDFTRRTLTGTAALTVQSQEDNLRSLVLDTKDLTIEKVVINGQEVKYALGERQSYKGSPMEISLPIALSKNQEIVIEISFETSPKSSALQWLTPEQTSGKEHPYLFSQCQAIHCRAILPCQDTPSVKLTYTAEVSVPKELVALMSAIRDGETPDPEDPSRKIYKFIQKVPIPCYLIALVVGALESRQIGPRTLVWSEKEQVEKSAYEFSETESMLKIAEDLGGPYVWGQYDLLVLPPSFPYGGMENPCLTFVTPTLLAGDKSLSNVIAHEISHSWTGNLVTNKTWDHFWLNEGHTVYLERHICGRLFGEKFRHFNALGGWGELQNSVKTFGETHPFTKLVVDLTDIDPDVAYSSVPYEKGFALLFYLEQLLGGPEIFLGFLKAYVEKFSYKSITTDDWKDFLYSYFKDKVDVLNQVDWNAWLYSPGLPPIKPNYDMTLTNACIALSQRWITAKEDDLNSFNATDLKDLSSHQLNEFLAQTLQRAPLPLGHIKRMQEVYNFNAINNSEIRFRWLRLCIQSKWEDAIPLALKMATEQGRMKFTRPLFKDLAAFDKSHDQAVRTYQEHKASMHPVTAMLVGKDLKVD

in vitro [8] = details: dog, MDCK
[9] = Solubility of compound in FaSSIF at pH 6.8; type: physicochemical
[10] = Cmax in C57BL/6 mouse at 3 mg/kg, po measured upto 24 hrs by LC-MS/MS analysis; type: ADME, organism-based; set-up: time < 24 hrs, dose 3 mg/kg, route po; details: in vivo
[11] = Cmax in Wistar rat at 30 mg/kg, po measured upto 24 hrs by LC-MS/MS analysis; type: ADME, organism-based; set-up: time < 24 hrs, dose 30 mg/kg, route po; details: in vivo
[12] = Volume of distribution at steady state in C57BL/6 mouse at 1 mg/kg, iv measured upto 24 hrs by LC-MS/MS analysis; type: ADME, organism-based; details: in vivo, read-out: Vdss
Mus musculus [13] = experiment: Antiarthritic activity in KRN passive serum-induced arthritis C57BL/6 mouse model assessed as reduction in joint damage at 0.1 to 10 mg/kg, po bid measured on day 7 at 2 hrs after first dose and 14 hrs after second dose; type: functional, organism-based; details: dose 0.1-10 mg/kg, time 7.0 day
in vivo [14] = details: Sprague-Dawley, rat, iv, 1 mg/kg
in vivo [15] = details: Sprague-Dawley, rat, iv, 1 mg/kg; remark: listed apart in the source
[16] = Oral bioavailability in C57BL/6 mouse at 3 mg/kg measured upto 24 hrs by LC-MS/MS analysis; type: ADME, organism-based; details: in vivo
[17] = MRT in Wistar rat at 1 mg/kg, iv measured upto 24 hrs by LC-MS/MS analysis; type: ADME, organism-based; details: in vivo
[18] = Oral bioavailability in dog at 3 mg/kg measured upto 24 hrs by LC-MS/MS analysis; type: ADME, organism-based, Canis lupus familiaris; details: in vivo
[19] = Inhibition of neutrophil influx in arachidonic acid-stimulated skin inflammation 129S2/SvPasCrl mouse model assessed as effect on MPO level in skin at 0.3 mg/kg, po pretreated with compound for 4 hrs followed by arachidonic acid stimulation and measured after 1 hr; type: functional; details: time 5 hrs
[20] = MRT in C57BL/6 mouse at 1 mg/kg, iv measured upto 24 hrs by LC-MS/MS analysis; type: ADME, organism-based; details: in vivo
[21] = Solubility of compound in SGF at pH […]; type: physicochemical
Mus musculus [22] = experiment: Antiarthritic activity in KRN passive serum-induced arthritis C57BL/6 mouse model assessed as reduction in tissue destruction at 0.1 to 10 mg/kg, po bid measured on day 7 at 2 hrs after first dose and 14 hrs after second dose; type: functional, organism-based; details: dose 0.1-10 mg/kg, time 7.0 day
in vitro [23] = details: rat, liver microsomes
in vivo [24] = details: Sprague-Dawley, rat, iv, 1 mg/kg; remark: listed apart in the source
[25] = Half life in Wistar rat at 1 mg/kg, iv measured upto 24 hrs by LC-MS/MS analysis; type: ADME, organism-based; details: in vivo
[26] = Inhibition of neutrophil influx in arachidonic acid-stimulated skin inflammation 129S2/SvPasCrl mouse model assessed as effect on MPO level in skin at 3 mg/kg, po pretreated with compound for 4 hrs followed by arachidonic acid stimulation and measured after 1 hr; type: functional; details: time 5 hrs
[27] = Metabolic stability in rat hepatocyte assessed as intrinsic clearance; type: ADME, cell-based; details: hepatocytes
[28] = Volume of distribution at steady state in Wistar rat at 1 mg/kg, iv measured upto 24 hrs by LC-MS/MS analysis; type: ADME, organism-based; details: in vivo, read-out: Vdss
[29] = Drug concentration in blood of arachidonic acid-induced skin inflammation 129S2/SvPasCrl mouse model at 0.03 mg/kg, po measured after 4 hrs; type: ADME, organism-based; details: read-out: Ct
physchem [30] = details: buffer, pH 6.8
[31] = Oral bioavailability in Wistar rat at 3 mg/kg measured upto 24 hrs by LC-MS/MS analysis; type: ADME, organism-based; details: in vivo
in vivo [32] = details: C57BL/6, mouse, in vivo, po, 10 mg/kg
[33] = Drug concentration in blood of arachidonic acid-induced skin inflammation 129S2/SvPasCrl mouse model at 3 mg/kg, po measured after 4 hrs; type: ADME, organism-based; details: read-out: Ct
[34] = Cmax in dog at 3 mg/kg, po measured upto 24 hrs by LC-MS/MS analysis; type: ADME, organism-based, Canis lupus familiaris; set-up: time < 24 hrs, dose 3 mg/kg, route po; details: in vivo
[35] = Clearance in Wistar rat at 1 mg/kg, iv measured upto 24 hrs by LC-MS/MS analysis; type: ADME, organism-based; details: in vivo
[36] = AUC (0 to infinity) in Wistar rat at 3 mg/kg, po measured upto 24 hrs by LC-MS/MS analysis; type: ADME, organism-based; set-up: time < 24 hrs, dose 3 mg/kg, route po; details: in vivo
[37] = Clearance in C57BL/6 mouse at 1 mg/kg, iv measured upto 24 hrs by LC-MS/MS analysis; type: ADME, organism-based; details: in vivo
[38] = Metabolic stability in mouse hepatocyte assessed as intrinsic clearance; type: ADME, cell-based; details: hepatocytes

logD (physchem [1]): 2 | CLH [2]: < 4 µL/min/mg | half-life [4]: 40 h | IC50 [7]: 47 nM | Papp A→B (in vitro [8]): 12 ×10⁻⁶ cm/s | solubility [9]: > 2000 µg/mL | Cmax [10]: 443 nM | Cmax [11]: 5490 nM | Vd [12]: 1.6 L/kg | concentration at 24 h (in vivo [14]): 32 nM | Cmax (in vivo [15]): 298 nM | bioavailability [16]: 32% | MRT [17]: 16 h | bioavailability [18]: 39% | MRT [20]: 3.3 h | solubility [21]: 27 µg/mL (≈ 68.5 µM) | microsomal CLint (in vitro [23]): 179 µL/min/mg | Vd (in vivo [24]): 5.5 L/kg | half-life [25]: 13 h | CLH [27]: 20 µL/min/mg | Vd [28]: 6.9 L/kg | concentration at 4 h [29]: 79 nM | solubility (physchem [30]): 180 µM (≈ 71 µg/mL) | bioavailability [31]: 39% | concentration at 2 h (in vivo [32]): 2600 nM | concentration at 4 h [33]: 367 nM | Cmax [34]: 1180 nM | clearance [35]: 7.3 mL/min/kg | AUC(0-inf) [36]: 4.99 µM·h | clearance [37]: 7.5 mL/min/kg | CLH [38]: 6 µL/min/mg
Compound: N[C@H](CO)Cn1ccc(-c2ccc(Oc3ncc(-c4cc[nH]n4)cc3F)cc2)n1
Activity (Mus musculus [3]): Active | inhibition in vivo at 10 mg/kg [5]: 93% | inhibition in vivo at 10 mg/kg [6]: 95% | Activity (Mus musculus [13]): Active | inhibition in vivo at 0.3 mg/kg [19]: 81% | Activity (Mus musculus [22]): Active | inhibition in vivo at 3 mg/kg [26]: 96%
